Experiments:
[1] = test system: antibodies in sera from SARS patients (sera 1a, 1b, 2, 6, 37, 62, London, SARS-yellow, SARS-green); assay type: binding, human; design: Binding of serum 6 to linear peptides of protein X1 of SARS-CoV Urbani / Binding of serum 37 to linear peptides of protein X1 of SARS-CoV Urbani / Binding of serum 6 to looped/cyclic peptide (PEPSCAN-ELISA) / Binding of serum 37 to looped/cyclic peptide (PEPSCAN-ELISA) / Binding of serum 37 to looped/cyclic peptides of protein X1 of SARS-CoV Urbani / Binding of serum 6 to linear peptides of protein X2 / Binding of serum 37 to linear peptides of protein X2 / Binding of serum 37 to looped/cyclic peptides of protein X2 of SARS-CoV Urbani / Binding of serum 6 to linear peptides of protein M of SARS-CoV Urbani / Binding of serum 37 to linear peptides of protein M of SARS-CoV Urbani / Binding of serum 6 to looped/cyclic peptides of protein M of SARS-CoV Urbani / Binding of serum 37 to looped/cyclic peptides of protein M of SARS-CoV Urbani / Binding of serum 6 to linear peptides of protein X3 of SARS-CoV Urbani / Binding of serum 37 to linear peptides of protein X3 of SARS-CoV Urbani / Binding of serum 37 to looped/cyclic peptides of protein X3 of SARS-CoV Urbani / Binding of serum 6 to linear peptides of protein X4 of SARS-CoV Urbani / Binding of serum 37 to linear peptides of protein X4 of SARS-CoV Urbani / Binding of serum 37 to looped/cyclic peptides of protein X4 of SARS-CoV Urbani / Binding of serum 6 to linear peptides of protein X5 of SARS-CoV Urbani / Binding of serum 37 to linear peptides of protein X5 of SARS-CoV Urbani / Binding of serum 37 to looped/cyclic peptides of protein X5 of SARS-CoV Urbani / Binding of serum 6 to linear peptides of protein N of SARS-CoV Urbani / Binding of serum 37 to linear peptides of protein N of SARS-CoV Urbani / Binding of serum 6 to linear peptide (PEPSCAN-ELISA) / Binding of serum 1a to looped/cyclic peptides of protein N of SARS-CoV Urbani / Binding of serum 1b to looped/cyclic peptides of protein N of SARS-CoV Urbani / Binding of serum 2 to looped/cyclic peptides of protein N of SARS-CoV Urbani / Binding of serum 6 to looped/cyclic peptides of protein N of SARS-CoV Urbani / Binding of serum 37 to looped/cyclic peptides of protein N of SARS-CoV Urbani / Binding of serum 62 to looped/cyclic peptides of protein N of SARS-CoV Urbani / Binding of serum London to looped/cyclic peptides of protein N of SARS-CoV Urbani / Binding of serum SARS-green to looped/cyclic peptides of protein N of SARS-CoV Urbani: unit not given here
[2] = test system: control sera (pooled serum of ten healthy LUMC hospital workers; commercial negative donor pooled serum from the Dutch bloodbank); assay type: binding, human; design: Binding of Control serum LUMC to linear peptides / Binding of Control serum Blood-bank to linear peptides / Binding of Control serum LUMC to looped peptides / Binding of Control Serum Blood-Bank to Looped peptides / Binding of Control serum LUMC to linear peptides of the protein M of SARS-CoV Urbani / Binding of Control serum Blood-bank to linear peptides of the protein M of SARS-CoV Urbani / Binding of Control serum LUMC to looped peptides of the protein M of SARS-CoV Urbani / Binding of Control Serum Blood-Bank to Looped peptides of the protein M of SARS-CoV Urbani: unit not given here
[3] = test system: rabbit serum obtained by immunizing a rabbit with the SARS-CoV strain Frankfurt 1; assay type: binding; design: Binding of a rabbit serum to linear peptides / Binding of a rabbit serum to looped peptides / Rabbit serum linear peptides / Rabbit serum looped peptides / Binding of a rabbit serum to linear peptides of protein N of SARS-CoV Urbani (Rabbit serum linear peptides) / Binding of a rabbit serum to looped/cyclic peptides of protein N of SARS-CoV Urbani (Rabbit serum looped peptides): unit not given here
[4] = test system: recombinant human anti-SARS-CoV antibody 03-018; assay type: binding; design: Binding of antibody 03-018 to linear peptides of the N protein of SARS-CoV Urbani / Binding of antibody 03-018 to looped/cyclic peptides of the N protein of SARS-CoV Urbani: unit not given here

Row | Sequence | Binding of serum 1a to linear peptides of protein N of SARS-CoV Urbani [1] | Binding of serum 1a to looped/cyclic peptides of protein N of SARS-CoV Urbani [1] | Binding of serum 1b to linear peptides of protein N of SARS-CoV Urbani [1] | Binding of serum 1b to looped/cyclic peptides of protein N of SARS-CoV Urbani [1] | Binding of serum 2 to linear peptides of protein N of SARS-CoV Urbani [1] | Binding of serum 2 to looped/cyclic peptides of protein N of SARS-CoV Urbani [1] | Binding of serum 6 to linear peptides of protein N of SARS-CoV Urbani [1] | Binding of serum 6 to looped/cyclic peptides of protein N of SARS-CoV Urbani [1] | Binding of serum 37 to linear peptides of protein N of SARS-CoV Urbani [1] | Binding of serum 37 to looped/cyclic peptides of protein N of SARS-CoV Urbani [1] | Binding of serum 62 to linear peptides of protein N of SARS-CoV Urbani [1] | Binding of serum 62 to looped/cyclic peptides of protein N of SARS-CoV Urbani [1] | Binding of serum London to linear peptides of protein N of SARS-CoV Urbani [1] | Binding of serum London to looped/cyclic peptides of protein N of SARS-CoV Urbani [1] | Binding of serum SARS-green to linear peptides of protein N of SARS-CoV Urbani [1] | Binding of serum SARS-green to looped/cyclic peptides of protein N of SARS-CoV Urbani [1] | Binding of serum SARS-yellow to linear peptides of protein N of SARS-CoV Urbani [1] | Binding of serum SARS-yellow to looped/cyclic peptides of protein N of SARS-CoV Urbani [1] | Binding of a rabbit serum to linear peptides of protein N of SARS-CoV Urbani (Rabbit serum linear peptides) [3] | Binding of a rabbit serum to looped/cyclic peptides of protein N of SARS-CoV Urbani (Rabbit serum looped peptides) [3] | also measured
1 | PPTEPKKDKKKKTDE | 0.2 | 0.2 | 0.1 | 0.1 | 2.0 | 0.2 | 0.2 | 0.1 | 0.6 | 0.4 | 0.7 | 0.2 | 0.5 | 0.2 | 0.3 | 0.0 | 0.6 | 0.2 | 0.2 | 0.2 | Control Serum Blood-Bank Looped peptides [2]: 0.4; Control serum Blood-bank linear peptides [2]: 0.6; Control serum LUMC linear peptides [2]: 0.7; Control serum LUMC looped peptides [2]: 0.3; Binding of antibody 03-018 to linear peptides of the N protein of SARS-CoV Urbani [4]: 0.1; Binding of antibody 03-018 to looped/cyclic peptides of the N protein of SARS-CoV Urbani [4]: 0.2
2 | PQGLPNNTASWFTAL | 0.2 | 0.5 | 0.1 | 0.3 | 0.2 | 0.6 | 0.1 | 0.3 | 0.7 | 1.0 | 0.7 | 0.9 | 0.4 | 0.6 | 0.2 | 0.4 | 0.5 | 0.9 | 0.1 | 0.6 | Binding of Control Serum Blood-Bank to Looped peptides [2]: 0.9; Binding of Control serum Blood-bank to linear peptides [2]: 0.7; Binding of Control serum LUMC to linear peptides [2]: 0.7; Binding of Control serum LUMC to looped peptides [2]: 0.9; Binding of antibody 03-018 to linear peptides of the N protein of SARS-CoV Urbani [4]: 0.1; Binding of antibody 03-018 to looped/cyclic peptides of the N protein of SARS-CoV Urbani [4]: 0.3
3 | PQIAQFAPSASAFFG | 0.2 | 0.4 | 0.1 | 0.3 | 0.2 | 0.4 | 0.1 | 0.3 | 0.6 | 0.7 | 0.6 | 0.7 | 0.5 | 0.5 | 0.6 | 0.4 | 0.6 | 0.5 | 0.1 | 0.5 | Control Serum Blood-Bank Looped peptides [2]: 0.8; Control serum Blood-bank linear peptides [2]: 0.7; Control serum LUMC linear peptides [2]: 0.5; Control serum LUMC looped peptides [2]: 0.7; Binding of antibody 03-018 to linear peptides of the N protein of SARS-CoV Urbani [4]: 0.1; Binding of antibody 03-018 to looped/cyclic peptides of the N protein of SARS-CoV Urbani [4]: 0.2

Source: patent US20070128217A1 (priority 2003, published 2007)
